IC50 data for 32 molecules are collected here from ChEMBL document CHEMBL1142799, “Comparison of different heterocyclic scaffolds as substrate analog PDE5 inhibitors” (Bioorg Med Chem Lett, 2005).

The target of one test is Phosphodiesterase 1 (Homo sapiens, UniProt P54750+Q01064+Q14123). The test can be described thus: Inhibition of phosphodiesterase 1. Type of test: protein assay.
Test [1] addresses cGMP-specific 3',5'-cyclic phosphodiesterase (Homo sapiens, UniProt O76074).
Description: Inhibition of phosphodiesterase 5

SMILES strings stand for the structures.

With `CCCc1nc(C)c2c(O)nc(-c3cc(S(=O)(=O)N4CCN(CCO)CC4)ccc3OCC)nn12`, the IC50 on Phosphodiesterase 1 was determined as 20 nM; in test [1] it was 5 nM.
For the molecule `CCOc1ccc(S(=O)(=O)N2CCN(CCO)CC2)cc1-c1nc(O)n2c(C)nc(C3CCCC3)c2n1`, the IC50 on Phosphodiesterase 1 amounted to 30 nM; in test [1], 10 nM.
Consider `CCCn1nc(C)c2c(=O)[nH]c(-c3cc(S(=O)(=O)N4CCN(C)CC4)ccc3OCC)nc21`, for which the results for the IC50 (against Phosphodiesterase 1; in test [1]) were 1000 nM and 8 nM, respectively.
For `CCOc1ccccc1-c1nc(O)c2ncn(C3CCCC3)c2n1`, the values for the IC50 (against Phosphodiesterase 1; in test [1]) were 500 nM and 50 nM, respectively.
For the molecule `CCOc1ccc(S(=O)(=O)N2CCN(CCO)CC2)cc1-c1nc(O)c2nnc(C3CCCC3)n2n1`, the IC50 (on Phosphodiesterase 1; in test [1]) was 50 nM in each case.
In the case of `CCCc1nc(CC)c2c(O)nc(-c3cc(S(=O)(=O)N4CCN(C)CC4)ccc3OCC)nn12`, the IC50 at Phosphodiesterase 1 is greater than 1000 nM; in test [1], 8 nM.
For `CCOc1ccccc1-c1nc(O)c2ncn(C3CCC3)c2n1`, the IC50 at Phosphodiesterase 1 was 1000 nM; in test [1], 100 nM.
In the same order, the values of `CCCn1nc(CC)c2c(=O)[nH]c(-c3cc(S(=O)(=O)N4CCN(C)CC4)ccc3OCC)nc21` are greater than 1000 nM and 20 nM.
As for `CCCc1n[nH]c2c(O)nc(-c3ccccc3OCC)nc12`, the 50% inhibitory concentration (IC50) in test [1] was 50 nM.
`CCOc1ccccc1-c1nc(O)c2onc(C3CCCC3)c2n1`: the IC50 against Phosphodiesterase 1 turned out to be 200 nM; in test [1], 20 nM.
In the same order, the values of `CCOc1ccccc1-c1nc(O)c2nnc(C3CCCC3)n2n1` are 50 nM and 200 nM.
For the molecule `CCOc1ccccc1-c1nc(O)c2nnn(C3CCCC3)c2n1`, the IC50 against Phosphodiesterase 1 turned out to be 800 nM; in test [1] it was 500 nM.
In the same order, the values of `CCOc1ccc(S(=O)(=O)N2CCN(C)CC2)cc1-c1nc(O)c2c(CC)nc(C3CCCC3)n2n1` are greater than 1000 nM and 7 nM.
For `CCOc1ccccc1-c1nc(O)c2c(C)nc(C3CCCC3)n2n1` the same measures were 30 nM and 5 nM.
At Phosphodiesterase 1, `CCCc1nc(C)c2c(=O)[nH]c(-c3ccccc3OCC)nn12` gave an IC50 of 300 nM.
Regarding `CCOc1ccc(S(=O)(=O)N2CCN(CCO)CC2)cc1-c1nc(O)c2c(C)nc(C)n2n1`, the IC50 against Phosphodiesterase 1 amounted to 1000 nM; in test [1], 10 nM.
For the molecule `CCCc1nc(C)c2c(=O)[nH]c(-c3cc(S(=O)(=O)N4CCN(C)CC4)ccc3OCC)nn12`, the IC50 against Phosphodiesterase 1 was determined as 300 nM.
Take `CCCn1cnc2c(O)nc(-c3ccccc3OCC)nc21`: the IC50 against Phosphodiesterase 1 was 10 nM.
Molecule `CCCn1nnc2c(O)nc(-c3ccccc3OCC)nc21` displayed an IC50 in test [1] of 300 nM.
In the case of `CCOc1ccc(S(=O)(=O)N2CCN(CCO)CC2)cc1-c1nc(O)c2onc(C3CCCC3)c2n1`, the IC50 is 30 nM on Phosphodiesterase 1 and 10 nM in test [1].
For `CCOc1ccccc1-c1nc(O)n2c(C)nc(C3CCCC3)c2n1` the same measures were 40 nM and 20 nM.
Turning to `CCCn1cnc2c(O)nc(-c3cc(S(=O)(=O)N4CCN(C)CC4)ccc3OCC)nc21`, the half-inhibitory concentration (IC50) in test [1] came out at 10 nM.
`CCOc1ccccc1-c1nc(O)c2ncn(C3CC3)c2n1`: the IC50 is 1000 nM on Phosphodiesterase 1 and 300 nM in test [1].
With `CCOc1ccc(S(=O)(=O)N2CCN(C)CC2)cc1-c1nc2c(c(CC)nn2C2CCCC2)c(=O)[nH]1`, the IC50 against Phosphodiesterase 1 is greater than 1000 nM; in test [1] it was 40 nM.
Take `CCOc1ccccc1-c1nc(O)c2c(C)nc(C)n2n1`: the half-inhibitory concentration (IC50) against Phosphodiesterase 1 came out at 1000 nM; in test [1], 200 nM.
On to `CCOc1ccc(S(=O)(=O)N2CCN(C)CC2)cc1-c1nc(O)c2c(C)nc(C3CCCC3)n2n1`, for which the IC50 on Phosphodiesterase 1 was determined as 10 nM; in test [1] it was 1 nM.
For `CCOc1ccc(S(=O)(=O)N2CCN(CCO)CC2)cc1-c1nc(O)c2c(C)nc(C3CCCC3)n2n1`, the values for the IC50 (against Phosphodiesterase 1; in test [1]) were 10 nM and 1 nM, respectively.
Regarding `CCCn1nc(C)c2c(=O)[nH]c(-c3ccccc3OCC)nc21`, in test [1], half-maximal inhibition (IC50) was put at 1 nM.
As for `CCOc1ccc(S(=O)(=O)N2CCN(CCO)CC2)cc1-c1nc(O)c2c(n1)c(C1CCCC1)nn2C`, the IC50 on Phosphodiesterase 1 came out at 10 nM; in test [1] it was 5 nM.
For the molecule `CCCc1nc(C)n2c(O)nc(-c3cc(S(=O)(=O)N4CCN(C)CC4)ccc3OCC)nc12`, the 50% inhibitory concentration (IC50) against Phosphodiesterase 1 came to 500 nM; in test [1] it was 10 nM.
In turn, `CCCc1nn(C)c2c(=O)[nH]c(-c3ccccc3OCC)nc12` returned an IC50 against Phosphodiesterase 1 of 790 nM.
As for `CCCc1nc(C)n2c(O)nc(-c3ccccc3OCC)nc12`, the results for the IC50 (against Phosphodiesterase 1; in test [1]) were 200 nM and 40 nM, respectively.
